Data reported in patent publication US10106540B2, “HDAC6 inhibitors and their uses” (Universität Regensburg, priority 2014, dated 2018).
“Also recorded” adds a separate entry of the source.

Columns and labels:
[1] = test system: PRXF PC-3M; assay: In vitro activity against solid tumor cell lines (FACS analysis method a); assay type: cell-based; details: Homo sapiens, Prostate
Experimental: (§1) Human prostate cancer cell lines PRXF DU-145, PRXF LNCaP, PRXF PC-3M (Oncotest GmbH, Freiburg, Germany)
(§2) The assay is carried out as described in Pietschmann et al., 2012 and Brandl et al. 2012. Briefly, 10^5 cells were fixed in 1 ml 70% EtOH with 0.05% Tween-20 overnight at 4° C. The following day, cells were washed with 3 ml 38 mM sodium citrate, pH 7.4, and incubated for 20 min at 37° C. in 0.5 ml 38 mM sodium citrate, pH 7.4, supplemented with 50 μg/ml propidium iodide and 10 μg/ml RNase-A. DNA contents of the cells were measured by fluorescence-activated cell sorter (FACS). This method allows detection of the apoptotic subG1-fraction, which has a DNA content below 2n due to apoptotic cleavage of DNA. Equally, the cell cycle profile can be assessed with this method.
(§3) The novel HDAC6 inhibitors were tested in a panel of tumor cell lines for cytostatic/toxic activities (see Table 2).

[2] = test system: PRXF DU-145; assay: as above; assay type: cell-based; details: Homo sapiens, Prostate
Experimental: as §1, §2, §3

[3] = test system: PRXF LNCaP; assay: as above; assay type: cell-based; details: Homo sapiens, Prostate
Experimental: as §1, §2, §3

[4] = test system: MAXF MCF-7; assay: as above; assay type: cell-based; details: Homo sapiens, MCF7, Breast
Experimental: (§4) Human breast cancer cell lines MAXF 401 and MAXF MCF-7 (Oncotest GmbH, Freiburg, Germany)
as §2, §3

[5] = test system: MAXF 401; assay: as above; assay type: cell-based; details: Homo sapiens, MAXF401, Breast
Experimental: as §4, §2, §3

[6] = test system: nuclear proteins; assay: Nuclear extracts versus cytoplasm after MARB1 stimulation, Western blot; assay type: cell-based
Experimental: Nuclear extracts were generated and compared to the cytoplasm by western blotting. 6 Mio cells were seeded on a 10 cm dish and incubated 2 h in the medium for adaption. SAHA and […] are pan-HDACi. HSP90 was used as a loading control for the cytoplasm. n=2
SDS-PAGE and Western Blot Analysis Method b
Western Blot analysis method b was used for the blots illustrated in FIGS. 6 to 9 and 11: Equal amounts of proteins were separated with a sodium dodecyl sulfate-polyacrylamide gel electrophoresis (SDS-PAGE) using an electrophoresis buffer by Laemmli with 1% SDS. The proteins were transferred to a nitrocellulose membrane by western blotting using a wet blot chamber. The blots were incubated with the primary antibody, after blocking the membrane for 1 h in 5% non-fat dry milk in tris-buffered saline (TBS) containing 0.05% Tween-20. Fluorescence coupled secondary antibodies (LI-COR) were used and the signal was measured on the Odyssey to detect the proteins.
The cells for nuclear extracts were harvested on ice after stimulation and washed with cold PBS. The pellet was resuspended in lysis buffer A (10 mM HEPES pH 7.9, 1.5 mM MgCl2, 10 mM KCl, 1 mM DTT and protease and phosphatase inhibitor) and incubated for 15 min on ice followed by addition of NP-40 to a final concentration of 1%. […] The protein level was assessed by Bradford assay (Goder et al. 2015).

[7] = test system: BV173 cells; assay: Cell cycle analysis by PI staining and flow cytometry (FACS method b); assay type: cell-based, human; details: BV173, PI staining
Experimental: 150,000 cells were seeded in 12 well plate and incubated for 2 h for adaption. Cells were harvested on ice and prepared for FACS analysis (following method b). The FACS blots were generated using FACS diva software. n=1
After harvesting the cells on ice and washing them with 1 ml cold PBS, the Pellet were fixed for 1 h in 80% Ethanol by −20° C. After centrifugation the supernatant was discarded and the pellet was resuspended in 333 μl PBS with 10 μg RNase. The cells were incubated 1 h at room temperature with RNase before adding propidium iodide to a final concentration of 16.4 μg/ml and measured by flow cytometry (BD FACS Canto II).

[8] = test system: BV-173 cells; assay: Western blot analysis in BV-173 cells; assay type: cell-based, human
Experimental: BV-173 cells (BCR-ABL positive leukemic cells) were used as control cells left (Ctl) or with 1 μM MARB1, 2 μM MARB2 or 2 mM VPA treated for 24 h. These concentrations were chosen to achieve equipotent effects on cells which was in preliminary tests (data not shown). Shown are acetylated tubulin-α, α-tubulin, acetylated histone H3, WT1, survivin and β-actin. The total amount of α-tubulin and β-actin were used as loading control. Mr, relative molecular weight in kilodaltons. The degradation of WT1 in patients treated with VPA cells bases on a loss of WT1 mRNA and the increased degradation of WT1 protein by induction of the E2 ubiquitin conjugase UbcH8.
Flow cytometric analysis of the induction of (A) apoptotic DNA fragmentation and (B) Cell cycle analysis of BV 173 cells. The cells were kept as control cells (Ctl), treated with 1 μM or 2 μM MARB1 MARB2 and 0.2 or 0.5 μM imatinib for 48 h. The data was received by two independent experiments. The individual compounds show only slight effects in the used concentrations; whereas their combination can effectively kill leukemic cells. (C) Western blot analysis on data from the BCR-ABL, acetylated tubulin and α-sliced PARP1; the total amount of tubulin-α serves as a loading control. BV-173 cells were treated for 24 h with 1 μM, or 2 μM MARB1 or MARB2.
Human leukemia cell lines BV 173 and K562 with BCR-ABL mutation (Leibniz Institute DSMZ—German Collection of Microorganisms and Cell Cultures, DSMZ Accession Nos: ACC-20 and ACC-10).
The assay is carried out as described in Buchwald et al. 2010 and Buchwald et al. 2013. Briefly, cells were collected and lysed in NET-N buffer (150 mM NaCl, 1 mM EDTA, 50 mM Tris-HCl (pH 7.8), 0.5% Nonidet P-40 (NP-40), 1 mM phenylmethylsulfonyl fluoride, 0.5 mg/ml leupeptin and 0.5 mg/ml pepstatin) followed by mild sonification on ice. Protein lysate ([…]) was boiled in Laemmli buffer and separated on SDS-polyacrylamide gel electrophoresis for western blotting with specific antibodies. All lysates were assessed by Bradford assay for protein concentrations.

[9] = test system: 42 solid tumor cell lines; assay: In vitro activity against solid tumor cell lines, mean of all lines; assay type: cell-based; details: average IC50 value from all 42 measurements
[10] = BV-173, 1 μM MARB1, 2 μM MARB2, 24 h

IC50 [1]: 5.14 µM | IC50 [2]: 2.34 µM | IC50 [3]: 1.62 µM | IC50 [4]: 2.33 µM | IC50 [5]: 2.28 µM | IC50 [9]: 5.03 µM
SMILES: CN1C(=O)C2CN(Cc3c2c2ccccc2n3Cc2ccc(C(=O)NO)cc2)C1=O (centres unmarked) [MARB1, N-Hydroxy-4-((4-methyl-3,5-dioxo-3,4,5,6-tetrahydro-2,6-methano[1,3]diazocino[5,6-b]indol-11(1H)-yl)methyl)benzamide]
effects on nuclear proteins [6]: no detectable effects | changes in the cell cycle [7]: no changes in the cell cycle | subG1 population [7]: no increase | acetylation of tubulin-α [8, 10]: hyperacetylation of tubulin-α | expression of survivin [8, 10]: reduction of the expression of survivin | acetylation of histone H3 ([8]; BV-173, 1 μM MARB1, 2 μM MARB2 or 2 mM VPA, 24 h): Neither MARB1, nor MARB2 cause these alterations | BCR-ABL expression on the protein level ([8]; BV-173, compound alone, 24 h): do not affect | BCR-ABL stabilization/degradation in combination with imatinib ([8]; BV-173, with imatinib, 24 h): significantly inhibit the unwanted stabilization of BCR-ABL; also recorded: significant degradation of BCR-ABL
